| melting point | Structure (SMILES) |
| --- | --- |
| 122 to 124 °C | COC(=O)c1ccc([N+](=O)[O-])cc1S(=O)(=O)NC(C)(C)C |
| 38 to 39 °C | COC12CC(C)(C)C(O1)C(=O)CC2C (stereo unspecified) |
| 95 to 97 °C | COc1cccc(C(=C/C=C/C(=O)Oc2ccc([N+](=O)[O-])cc2)c2cccc(OC)c2)c1 |
| 137 to 138 °C | CS(=O)c1ccc(-n2cnc3ccc(-c4nnc(SCc5cccc(F)c5)o4)cc32)cc1 (stereo unspecified) |
| 234 to 236 °C | NS(=O)(=O)c1ccc([C@H]2[C@H](C(=O)Nc3ccc(C(F)(F)F)cc3)C23CCCC3)cc1 (relative stereo) |
| 169 °C | CNC(=O)C1CN(CC(=O)Nc2c(Cl)cc(Cl)cc2Cl)CCN1 (stereo unspecified) |
| 124 to 126 °C | COC(=O)N=C1SCC(=O)N1c1c(-c2ccccc2)csc1NC(=O)CN(C)C |
| 82 to 84 °C | CCCC(=O)NC[C@@H]1C[C@H]1c1cccn2nc(C)cc12 (relative stereo) |
| 114 to 115 °C | Cc1oc(-c2ccccc2)nc1COc1ccc2oc(CCCC#N)cc2c1 |
| 80 to 84 °C | COc1ccccc1C=CCN1CCc2nc(N)sc2CC1 |
| 131 to 133 °C | O=C(NCCCc1cccs1)n1cc(F)c(=O)[nH]c1=O |
| 246 to 247 °C | CCCC(=O)Nc1ccc2nc(S(N)(=O)=O)sc2c1 |
| 286 to 289 °C | Cc1nn(C)c2cnc(-c3ccc(C(F)(F)F)cc3)nc12 |
| 117 to 118 °C | COC(=O)c1cc2cccc(OCc3cccnc3)c2o1 |
| 165 to 167 °C | Cn1c(Cl)c(C=O)c2cc(Cl)ccc21 |
| 158 to 160 °C | CC(C)c1ccc2ccc(N)nc2n1 |
| 189 to 191 °C | Cn1nc(O[C@@H]2c3cc(C(F)(F)C(F)(F)F)ccc3OC(CF)(CF)[C@H]2O)ccc1=O (relative stereo) |
| 76 to 82 °C | Cc1ccc(S(=O)(=S)OCCCCCCCCCCOS(=O)(=S)c2ccc(C)cc2)cc1 (stereo unspecified) |
| 181 to 183 °C | C=C1C(=O)Nc2ccc(C(F)(F)F)cc2CC1c1ccc(OC)cc1 (stereo unspecified) |
| 175 to 176 °C | Cc1cc(Br)cnc1CCCCNC1=NS(=O)N=C1NCc1ccccc1 (stereo unspecified) |
| 216 to 218 °C | CCOC(=O)c1ccc(NC(=O)C=CC=C(c2ccc(Cl)cc2)c2ccc(Cl)cc2)cc1 |
| 305 to 315 °C | Cc1cc2c(s1)c(=O)c(C(=O)O)cn2C |
| 172 °C | CC(C)(OCc1cc2nc(Cl)ccc2n1S(=O)(=O)c1ccc2c(c1)OCO2)C(=O)O |

| melting point | Structure (SMILES) |
| --- | --- |
| 92.1 °C | COc1cc(C=CC#N)cc(OC)c1OC |
| 149 °C | Cc1nc2cccc(Cl)c2c(=O)o1 |
| 56 to 57 °C | C[Si](C)(Oc1ccc(N)cc1)O[Si](C)(C)Oc1ccc(N)cc1 |
| 233 to 235 °C | O=C(Nc1nc(-c2ccco2)c(C(=O)C2CCOCC2)s1)c1ccc(Cl)nc1 |
| 81 to 82 °C | CCOC(=O)c1cc(O)ccc1O |
| 268 to 270 °C | CCC(c1oc2ccccc2c(=O)c1-c1cccc(F)c1)n1nc(-c2ccc3c(C)n[nH]c3c2)c2c(N)ncnc21 (stereo unspecified) |
| 143 to 148 °C | Cc1sc(C)c(NC(=S)Nc2c(Cl)cccc2Cl)c1N |
| 179 to 183 °C | CN1CCC(C2(O)c3ccccc3Oc3ccc(C(F)(F)F)cc32)CC1 (stereo unspecified) |
| 136 to 137 °C | C[C@H](CSC(=O)c1ccccc1)C(=O)N1C(c2cccs2)SC[C@H]1C(=O)O (stereo partly specified) |
| 144 °C | CCOC(=O)CCC(=O)CSc1nc2cc(Cl)c(F)cc2c(O)c1C(=O)OCC |
| 210 °C | CCN(CC)c1ccc(-n2c(CC(=O)O)c(C(=O)O)c3cc(Oc4ccc(Cl)cc4)ccc32)cc1 |
| 193 to 194 °C | Cc1nn(-c2ccc(F)cc2)cc1C(=O)Nc1ccc(OCC(C)(C)C)c(Br)c1 |
| 244 to 245 °C | CC1Cc2c(-n3nc(C#N)c(=O)[nH]c3=O)ccc(Cl)c2O1 (stereo unspecified) |
| 326 to 328 °C | COc1ccc(-c2nc3cc4c(cc3[nH]2)NC(=O)C4C(C)C)cc1 (stereo unspecified) |
| 55 to 57 °C | N#Cc1ccc(-c2ccoc2)cc1 |
| 164 to 166 °C | CS(=O)(=O)c1ccc(/C(=C\C2CCCCCC2)C(=O)O)cc1 |
| 156 °C | CC(=O)Nc1ccc2c(c1)CCC(CO)O2 (stereo unspecified) |
| 230 °C | COCCC(=O)OCC(=O)C1(O)CCC2C3CC(C)C4=CC(=O)C=CC4(C)C3C(O)CC21C (stereo unspecified) |
| 257 to 259 °C | Cn1cnc(COc2nn3c(-c4ccccc4)nnc3cc2-c2ccco2)n1 |
| 217 to 218 °C | Cc1c(NC(=O)c2ccc(-c3cc4ccccc4s3)cc2)ccc2cc(CN3CCCC3)cnc12 |
| 112 to 115 °C | O=C1C(c2c[nH]c3ccccc23)C(c2c[nH]c3ccccc23)C(=O)N1Cc1ccccc1 (stereo unspecified) |
| 111 to 112 °C | O=c1c(O)c(CCCCCO)oc2ccccc12 |
| 124 to 125 °C | COC(=O)CC(NC(=O)c1cccc(OC)c1)c1ccc(OC)c(OC)c1 (stereo unspecified) |

| melting point | Structure (SMILES) |
| --- | --- |
| 249 °C | CCC(=O)C1=C(O)CC(c2c(C)c([N+](=O)[O-])c(C)c([N+](=O)[O-])c2C)CC1=O (stereo unspecified) |
| 116 °C | O=C(CCc1cc(-c2ccccc2)nc2ccccc12)N1CCCC1 |
| 203 to 205 °C | CCOCc1nc2c(N)nc3ccccc3c2n1CC(C)(C)CS(=O)(=O)NCc1ccc(OC)cc1 |
| 156 to 157 °C | CC(=O)NC(C)(C)Cc1ccc(N(C)C)cc1 |
| 155 to 158 °C | CC(C)(C)OC(=O)N1CCC(c2nc3cc(-c4ccc(S(C)(=O)=O)cc4F)cc(F)c3o2)CC1 |
| 110 to 112 °C | COc1ccc2c(c1)COc1c-2cc(-c2cccs2)c2cc(OC)ccc12 |
| 177 to 180 °C | N#Cc1ccc(N(Cc2ccc(OS(N)(=O)=O)cc2)n2cnnc2)cc1-c1ccc(C(F)(F)F)cc1 |
| 95 to 105 °C | Nc1ccc(C(=O)N2CCOCC2)cc1OCc1ccc(-c2ccccc2)c(-c2nnnn2C(c2ccccc2)(c2ccccc2)c2ccccc2)c1 |
| 139 to 140 °C | COC(=O)CC(=O)CN1C(=O)c2ccccc2C1=O |
| 163 to 166 °C | COc1cncnc1N1CCN(CCCc2c[nH]c3ccc([N+](=O)[O-])cc23)CC1 |
| 190 to 196 °C | CCOC(=O)c1[nH]cc2c1NC1=C(C(=O)CNC1)C2c1ccc(Sc2nc3cc(F)c(F)cc3[nH]2)o1 (stereo unspecified) |
| 185 to 187 °C | CCCCC1(SCC)CCC2C3CCC4=CC(=O)C=CC4(C)C3(F)C(O)CC21C (stereo unspecified) |
| 146 to 148 °C | C=C(Cl)CONC(=O)c1nc(-c2ccc(Cl)c(OC)c2F)cc(N)c1Cl |
| 111 to 120 °C | CN1C(=O)CC[C@]2(C)c3ccc(-c4ccccc4Cl)cc3CC[C@@H]12 |
| 104 to 108 °C | O=C(O)c1ccc(CCCC2SCC(=O)N2CCC2(O)CCCCC2)cc1Cl (stereo unspecified) |
| 232 to 233 °C | Cc1cccc(NC(=O)Cn2c3c(c4c(Cl)c(Cl)ccc42)CCN(C(=O)OC(C)(C)C)CC3)c1C |
| > 250 °C | N#CNC(=S)Nc1ccc([N+](=O)[O-])cc1 |
| 261 to 265 °C | NC(=O)C1CCN(Cc2cnc3cc(NC(=O)c4ccc(-c5ccc(F)cc5)cc4)ccc3c2)CC1 |
| 226 to 227 °C | O=C(O)c1ccc(O)c(NC(=O)C(CS)Cc2ccccc2)c1 (stereo unspecified) |
| 79 to 80 °C | COc1cc(O)c(C)c(C(=O)O)c1Br |
| 199 to 201 °C | COc1ccc(OC)c2c1CC(C(=O)O)CC2=O (stereo unspecified) |
| 164 to 166 °C | CCS(=O)(=O)c1cn(C)c2ccccc2c1=O |
| 176 to 179 °C | O=C(/C=C/c1ccc(C(F)(F)F)cc1)Nc1ccc2c(c1)NCC(CO)C2 (stereo unspecified) |

| melting point | Structure (SMILES) |
| --- | --- |
| 229 to 231 °C | COc1ccc(-c2cnn3cc(C(=O)O)cnc23)cc1OC |
| 137 °C | CCCCCCCCCCCCCCCCCCOc1ccc(C=Cc2ccc(S(=O)(=O)CCCO)cc2)cc1 |
| 69 to 71 °C | CCCCCCCCCCC(=O)Nc1cc(F)cc2c1OCCC21SC(=O)NC1=O (stereo unspecified) |
| 200 to 201 °C | O=C(N[C@H](Cc1ccc(C(F)(F)F)cc1)[C@@H](O)c1cccc(F)c1)c1ccc(F)c2ccccc12 (racemic) |
| 137 °C | C=C(c1ccc(OC)cc1)c1ccc(OC)cc1 |
| 218 to 219 °C | COc1c(-c2cc3c(s2)CCC(CO)C3)ccc2c(=O)c(C(=O)O)cn(C3CC3)c12 (stereo unspecified) |
| 163 to 166 °C | O=C1c2ccccc2C(=O)N1Cc1cc2cc(Cl)cc(-c3ccccc3)c2o1 |
| 65 to 66.5 °C | CCOC(=O)c1nsc(-c2ccc(C)cc2)n1 |
| 162 to 163 °C | COc1ccc(S(=O)(=O)Nc2ccccc2NC(=O)c2ccncc2)cc1 |
| 250 to 254 °C | CC(=O)N1CCc2[nH]c3cc(-n4ccc(OCc5ccccc5)cc4=O)ccc3c2CC1 |
| 191 to 193 °C | Cc1nc(-c2cccnc2)sc1-c1ccnc(Nc2ccc(N3CCSCC3)cc2)n1 |
| 125 to 126 °C | O=C(O)Cc1ccc(OCCCCc2cc(-c3ccc(C(F)(F)F)cc3)no2)cc1 |
| 152 to 156 °C | O=Cc1cc(C#Cc2cccc(Br)c2)c[nH]1 |
| > 250 °C | CN1C(=O)C2(COc3cc4c(cc32)OCCO4)c2c(O)cccc21 (stereo unspecified) |
| 226 to 227 °C | CC(C)c1nc2cc(NC(=O)c3c(C(=O)N4CCC4)cnn3C)ccn2n1 |
| 121 to 122 °C | CNC(=O)C(N)C(N)=O (stereo unspecified) |
| 156 to 157 °C | COC(=O)c1cc(CCCc2coc3nc(N)nc(N)c23)cs1 |
| 205 °C | COc1ccccc1CC(=O)N1C[C@@H]2[C@H](F)CCC(c3ccccc3)(c3ccccc3)[C@@H]2C1 |
| 132 to 133 °C | CCCN1C(=O)c2ccccc2C1(SCc1ccccc1)c1ccc(Cl)cc1 (stereo unspecified) |
| 100 to 103 °C | COc1ccccc1C1CCN(C[C@@H](CC2CCCCC2)NC(=O)C2CCCCC2)CC1 |
| 96 to 98 °C | O=C(O)[C@@H](CC(=O)N1CCN(CC(F)(F)F)CC1)Cc1ccccc1 |
| 192 to 193 °C | N#CCCNC(=O)c1cncc(-c2cccc3nn(Cc4cccc(C(F)(F)F)c4)cc23)c1 |
| 185 to 186 °C | O=C1NCCc2ccc(OCCCCN3CCN(c4cccc(Cl)c4Cl)CC3)cc2N1 |

| Structure (SMILES) | melting point |
| --- | --- |
| O=C(O)c1cccc(CN2CCC(c3cn(CCc4ccccn4)c4ccccc34)CC2)c1 | 141 to 142 °C |
| COc1cc(Cl)c(C(=O)c2c(C)ccc(OC)c2OC(=O)Cc2ccccc2)c(Cl)c1 | 106 °C |
| Cc1ccc(N)c(C(=O)c2ccc(F)cc2)c1 | 70 to 71.5 °C |
| Cc1cc(Oc2ccc(C(F)(F)F)cc2Cl)cc(C)c1NC(=O)C1C(=O)N(C)C(=S)N(C)C1=O | 171 to 173 °C |
